From patent publication US7919300B2, “Glucose isomerase mutants” (priority 2004, dated 2011) come the findings set out here.

Read-outs that look alike come from different tables or passages of the source.

This test deals with Thermoanaerobacterium saccharolyticum glucose isomerase (ATCC 49915), wild-type, SEQ ID NO.: 2 (Thermoanaerobacterium saccharolyticum, UniProt P30435). To be noted: pH 6.5, 20 mM sodium phosphate, 250 μM CoCl2, 5 mM MgCl2, 10 minutes.
Sequence of Thermoanaerobacterium saccharolyticum glucose isomerase (ATCC 49915), wild-type, SEQ ID NO.: 2 (P30435 whole entry R81A): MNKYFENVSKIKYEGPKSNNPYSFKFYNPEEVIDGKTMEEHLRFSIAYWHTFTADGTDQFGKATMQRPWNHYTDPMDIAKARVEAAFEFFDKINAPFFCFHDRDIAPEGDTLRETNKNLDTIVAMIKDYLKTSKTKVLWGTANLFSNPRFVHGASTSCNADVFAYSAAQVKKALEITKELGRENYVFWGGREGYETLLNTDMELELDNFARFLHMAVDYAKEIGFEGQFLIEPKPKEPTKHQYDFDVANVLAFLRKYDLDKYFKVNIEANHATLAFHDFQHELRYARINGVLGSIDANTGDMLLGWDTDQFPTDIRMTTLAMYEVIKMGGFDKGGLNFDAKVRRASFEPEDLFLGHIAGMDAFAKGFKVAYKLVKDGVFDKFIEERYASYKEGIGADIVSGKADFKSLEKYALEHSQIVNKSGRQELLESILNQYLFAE

Procedure: The isolation and purification of wild-type glucose isomerase were based on Lee et al., (Journal of General Microbiology, 139:1227-1234, 1993) with modifications. pGEMT-TS transformed E. coli HB101 cells were incubated on 1% MacConkey agar plate containing 1% xylose and 50 mg/L ampicillin at 37° C. for 36 hours. A single colony from the plate was inoculated and cultivated in 5 mL LB supplemented with 50 mg/L ampicillin for 16 hours. The bacterial cells were pelleted and resuspended in 1 ml 20 mM phosphate buffer (pH 6.5), and CoCl2 and MgCl2 were added to final concentration of 250 μM and 5 mM, respectively. The cells were disrupted by using ultrasonication and centrifuged at 17,800 g for 15 minutes at 10° C. to collect the supernatant as crude glucose isomerase. The crude enzyme was heated at 80° C. for 10 minutes and centrifuged again at 17,800 g for 15 minutes at 10° C. to remove the precipitation.
Ninety μl of the stock solution was mixed with 10 μl of the glucose isomerase prepared as described in Example 9, incubated at 80° C. for 10 minutes and quenched on ice immediately. The fructose formed was measured by the cysteine-carbazole method (Dische et al., J. Biol. Chem, 192:583-587, 1951; and Nakamura, Agr. Biol. Chem. 32:701-706, 1968). The protein concentration was determined using Coomassie® Plus Protein Assay Reagent Kit (Pierce, USA) and SDD-PAGE, with BSA as the standard.

Under “65° C.”, `OC[C@H]1OC(O)[C@H](O)[C@@H](O)[C@@H]1O` (stereo partly drawn) [D-glucose] showed a Kcat of 5.742 s⁻¹ and a Kcat/Km of 41.7 M⁻¹ s⁻¹. Under “80° C.”, the Kcat was found to be 14.68 s⁻¹ and the Kcat/Km came to 98.3 M⁻¹ s⁻¹.
